According to patent US8916204B2, “SPARC and methods of use thereof” (Abraxis BioScience, LLC, priority 2004, dated 2014):

Test system: endothelial monolayers (gp60-mediated caveolar transcytosis)
Test: inhibition of transport of paclitaxel from ABX across endothelial monolayers
Assay type: in vitro ADME, human
Description: Transport was dependent on albumin.

CCN1C(=O)C=CC1=O [NEM]
effect on transport of paclitaxel from ABX: inhibited

[…]-methyl cyclodextrin [BMC]
effect on transport of paclitaxel from ABX: inhibited
